Values of other authors in patent US11452694B2, “High concentration dosage forms of pridopidine” (PRILENIA NEUROTHERAPEUTICS LTD., priority 2017, dated 2022).

Tested on: neuroblastoma cell line
Details: SIR-dependent manner

CCCN1CCC(c2cccc(S(C)(=O)=O)c2)CC1 [Pridopidine, 4-(3-(Methylsulfonyl)phenyl)-1-propylpiperidine]
secretion of brain-derived neurotrophic factor (BDNF): enhance secretion
